Target: T1, NAD-dependent protein deacetylase sirtuin-2 (Homo sapiens, UniProt Q8IXJ6)
T1 sequence (Q8IXJ6 whole entry): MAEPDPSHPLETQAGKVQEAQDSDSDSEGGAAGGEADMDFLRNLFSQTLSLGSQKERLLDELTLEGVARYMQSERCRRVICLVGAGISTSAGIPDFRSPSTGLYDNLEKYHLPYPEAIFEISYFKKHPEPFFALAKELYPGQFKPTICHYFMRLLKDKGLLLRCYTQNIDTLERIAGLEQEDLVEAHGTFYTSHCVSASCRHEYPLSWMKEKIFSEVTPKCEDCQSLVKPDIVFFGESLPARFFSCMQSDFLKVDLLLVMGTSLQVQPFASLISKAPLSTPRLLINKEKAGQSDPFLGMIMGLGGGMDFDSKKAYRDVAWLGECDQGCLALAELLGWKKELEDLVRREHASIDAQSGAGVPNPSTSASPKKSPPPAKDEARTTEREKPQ
Assay: Inhibition of human recombinant SIRT2

Going from `CCCCC(CC)COCCCNC(=O)CCC(C)(c1ccc(O)cc1)c1ccc(O)cc1` (stereo not drawn) to `OCc1cccc(/C=N/c2cc(/N=C/c3cccc(CO)c3O)cc(C(F)(F)F)c2)c1O`, the IC50 falls from 200 µM to 91 µM (2.2-fold). The second is the more potent here.

Work on `CC1(C)CCC(C)(C)c2cc(-c3csc(C4CCN(Cc5ccc(N(CCC#N)CCC#N)cc5)CC4)n3)ccc21` yielded an IC50 of 136 µM.

Source: ChEMBL document CHEMBL1137363, “Discovering inhibitors of human sirtuin type 2: novel structural scaffolds” (J Med Chem, 2006)
